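Each compound was tested at five concentrations against cells in 96-well plates for 48 hours. GI50 marks 50% less growth. TGI: concentration producing complete growth inhibition.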 *1 amine or outer side, *2 acyl side, *3 side chain or, on linkers, in order; H or OH if unused. Where a SMILES comes first, the peptide text is derived from it. [ ]: non-standard residue; d: D form. X32 = C[C@H](N[*:1])C(=O)C(C)(C)C(=O)[*:2]; Hmpa(2S,3S) = CC[C@H](C)[C@H](O)C(=O)O; NMeY = CN[C@@H](Cc1ccc(O)cc1)C(=O)O; NMeL = CN[C@@H](CC(C)C)C(=O)O; NMeV = CN[C@H](C(=O)O)C(C)C; βAla = NCCC(=O)O
Experiments:
Assay in all cases: NCI-60 cell line screen, 48 h
SF-295 CNS = system: SF-295 CNS
PC-3 prostate = system: PC-3 prostate
ACHN renal = system: ACHN renal
COLO 205 colon = system: COLO 205 colon
HOP-92 NSCLC = system: HOP-92 NSCLC
HCC-2998 colon = system: HCC-2998 colon
NCI-H460 lung = system: NCI-H460 lung
NCI-H522 lung = system: NCI-H522 lung
NCI-H23 lung = system: NCI-H23 lung
RPMI-8226 leukemia = system: RPMI-8226 leukemia

Compound	TGI (SF-295 CNS)	TGI (PC-3 prostate)	TGI (ACHN renal)	TGI (COLO 205 colon)	TGI (HOP-92 NSCLC)	TGI (HCC-2998 colon)	TGI (NCI-H460 lung)	TGI (NCI-H522 lung)	TGI (NCI-H23 lung)	TGI (RPMI-8226 leukemia)	GI50 (SF-295 CNS)	GI50 (PC-3 prostate)	GI50 (ACHN renal)	GI50 (COLO 205 colon)	GI50 (HOP-92 NSCLC)	GI50 (NCI-H460 lung)	GI50 (NCI-H23 lung)	GI50 (RPMI-8226 leukemia)	GI50 (HCC-2998 colon)	GI50 (NCI-H522 lung)
CC[C@H](C)[C@@H]1OC(=O)CCNC(=O)[C@@H](C)NC(=O)C(C)(C)C(=O)[C@H](C)NC(=O)[C@H](Cc2ccc(OC)cc2)N(C)C(=O)[C@H](C(C)C)N(C)C(=O)CNC(=O)[C@H](CC(C)C)N(C)C(=O)CNC1=O (cyclo(G[NMeL]G[NMeV][NMeY](Me)[X32][dA][βAla][Hmpa(2S,3S)]))	24.3 µM	> 31.5 µM	> 38 µM	0.0545 µM	4.61 µM	> 25.1 µM	> 50 µM	> 50 µM	> 50 µM	11.1 µM										
CCCCCCCCCCCCCCCCCCN(C)CC(COP(=O)([O-])OCC[N+](C)(C)C)OC (configuration not stated)	23.9 µM	32.9 µM	48.8 µM	8.47 µM	35.6 µM	24.2 µM	12.2 µM	30.2 µM	49.3 µM	18.6 µM										
CC1(C)CCC[C@]2(C)[C@H]3[C@H](C#N)c4cc(O)c(O)cc4O[C@@]3(C)CC[C@@H]12	> 10 µM	> 10 µM	> 10 µM	> 10 µM	> 10 µM	> 10 µM	> 10 µM	> 10 µM	> 10 µM	> 10 µM										
C/C(=N\NC(=S)NCCCNC(=S)N/N=C(\C)c1ccccn1)c1ccccn1	46.1 µM	> 91.5 µM	16.6 µM	> 34.9 µM	> 66.2 µM	> 59.1 µM	10.1 µM	> 49.4 µM	> 54.4 µM	> 100 µM										
COc1ccccc1C(=O)c1c(NCc2ccccc2)c(=O)c1=O	> 100 µM	> 100 µM	> 100 µM	98.7 µM	> 100 µM	> 100 µM	> 100 µM	31.8 µM	> 100 µM	> 100 µM										
O=c1/c(=C/c2ccc(-c3ccc(Cl)cc3Cl)o2)sc2n1[C@@H](c1ccc(Cl)cc1)C=C(c1cc(F)c(Cl)cc1Cl)N=2	> 100 µM	> 100 µM	> 100 µM	> 100 µM	61.7 µM	56.2 µM	> 100 µM	> 100 µM	> 100 µM	> 100 µM										
CC(C)(C)c1cc(O)ccc1O	> 100 µM	5.3 µM	> 100 µM	> 100 µM	> 79.2 µM	> 17.6 µM	> 21.6 µM	> 39.8 µM	> 100 µM	> 93.7 µM										
CCOC(=O)c1c(N2CCOCC2)[nH]c(=O)c(C(c2ccco2)c2c(O)c(C(=O)OCC)c(N3CCOCC3)[nH]c2=O)c1O	> 100 µM	> 100 µM	> 100 µM	> 100 µM	> 100 µM	> 100 µM	> 100 µM	> 100 µM	> 100 µM	> 100 µM										
CC(=O)Nc1ccc(C2SCc3nc4ccccc4n32)cc1 (configuration not stated)	> 100 µM	> 100 µM	> 100 µM	> 100 µM	> 100 µM	> 100 µM	> 100 µM	> 100 µM	> 100 µM	> 100 µM										
Cc1ccccc1S(=O)(=O)Nn1cnc2ccc(S(=O)(=O)Nc3ccc(Cl)cc3)cc2c1=O	> 100 µM	> 100 µM	> 100 µM	> 100 µM	> 100 µM	> 100 µM	> 100 µM	> 100 µM	> 100 µM	> 100 µM										
CCCCCCCCCCCCC(O)[C@H]1CC[C@H](C(O)CCCCCC(=O)CCCCC2CC(C(C)=O)C(=O)O2)O1 (some centres not stated)	37.6 µM	28.1 µM	70.4 µM	> 57.8 µM	31.7 µM	32.1 µM	22.5 µM	25.6 µM	63.8 µM	> 27.8 µM	2.7 µM	3.55 µM	1.68 µM	2.16 µM	3.23 µM	9.67 µM	1.72 µM	2.12 µM		
CC(=O)c1cc2ccccc2oc1=O	> 100 µM	> 100 µM	> 100 µM	> 100 µM	> 100 µM	> 100 µM	> 100 µM	> 100 µM	> 100 µM	> 100 µM										
Nc1onc2c1Cc1c(noc1N)-c1ccccc1-2	> 100 µM	> 100 µM	> 100 µM	> 100 µM	94.6 µM	> 100 µM	> 100 µM	> 100 µM	> 100 µM	> 100 µM										
CC(=O)Nc1c(C)cc2c(nc3n2CCC3O)c1[N+](=O)[O-] (configuration not stated)	> 100 µM	> 100 µM	> 100 µM	> 100 µM	> 100 µM	> 100 µM	> 100 µM	> 100 µM	> 100 µM	> 100 µM										
C=CC(Cl)(CBr)CCC(Br)C(C)(C)Cl (configuration not stated)	28.8 µM	35 µM	38.2 µM	29.5 µM	39.8 µM	28.8 µM	28 µM	24.4 µM	31.3 µM	29.5 µM										
COc1cc(/C=C/C(=O)C2(C(=O)/C=C/c3cc(OC)c(OC)c(OC)c3)CCCCC2)cc(OC)c1OC	89 µM	> 100 µM	> 100 µM	> 100 µM	68 µM	> 100 µM	> 100 µM	96.9 µM	> 100 µM	> 100 µM										
COc1cc2c(cc1OCCCC(=O)Nc1ccc3ccc4cccc5ccc1c3c45)N=C[C@@H]1CCCN1C2=O	1.08 µM	6.69 µM	> 100 µM	4.77 µM	1.07 µM	< 0.0157 µM	0.31 µM		< 0.01 µM	0.238 µM	0.217 µM	0.222 µM	0.044 µM	2.03 µM	0.147 µM	< 0.0484 µM	< 0.01 µM	0.042 µM	< 0.01 µM	< 0.0133 µM
